Values of other authors in patent US20150104528A1, “TREATMENT FOR DEPRESSION AND OTHER MENTAL CONDITIONS WITH SYNTHETIC ISOTOPE-MODIFIED LITHIUM” (priority 2013, published 2015).

System: female mother rats
Details: female mother rats fed the substance; same dosage level for both groups

[6Li] [lithium-6]
state of alertness compared to control rats fed a placebo: very high
